# Source: US10669238B2, “Irreversible bruton's tyrosine kinase inhibitor” (HEFEI INSTITUTES OF PHYSICAL SCIENCE, CHINESE ACADEMY OF …, priority 2016, dated 2020)
# Key:
# [1] = test system: diffuse large B-cell lymphoma cell lines TMD8; experiment: Cell proliferation (Cell Titer-Glo), TMD8; format: cell-based; conditions: Homo sapiens, TMD8, 72 h, read-out: Effects on cell proliferation (GI50)
# Text: The following cells were adopted in the example: acute myelocytic leukemia cell strains (acute myelocytic leukemia, AML) HL-60, B-lymphoma cell Ramos, colon cancer cells HCT116, leukemic cells K562, B-cell lymphoma cells U2932, diffuse large B-cell lymphoma cell line OCI-LY10, diffuse histiocytic lymphoma cells SU-DHL-2, diffuse large B-cell lymphoma cell lines TMD8, leukemia cell OCI-AML-3, acute promyelocytic leukemia cell line NB-4 (Lu+), MDS-RAEB (myelodysplastic syndrome—excessive blasts) cell lines SKM-1, human leukocyte leukemia cells HEL, acute myeloid leukemia cell lines (acute myelocytic leukemia, AML) U937, acute myeloid leukemia cell lines (acute myelocytic leukemia, AML) MOLM14, acute myeloid leukemia cell lines (acute myelocytic leukemia, AML) MOLM13, acute myeloid leukemia cell lines (acute myelocytic leukemia, AML) M-07e, acute myeloid leukemia cell lines (acute myelocytic leukemia, AML) MV4-11, acute myeloid leukemia cell lines (acute myelocytic leukemia, AML) MOLM16, diffuse large B-cell lymphoma cell lines Pfeiffer, multiple myeloma cell lines (multiple myeloma) RPM18226, bone marrow plasma cell tumor cells AMO-1, mouse pro-B cells BaF3, all purchased from ATCC.
# In this example different concentrations (0.000508 μM, 0.00152 μM, 0.00457 μM, 0.0137 μM, 0.0411 μM, 0.123 μM, 0.370 μM, 1.11 μM, 3.33 μM, 10 μM) of Compound 1 and Compound 6 were respectively added into the above cells which were then cultured for 72 hours. The number of viable cells was determined via quantitative determination of ATP in living cells by using Cell Titer-Glo® (Promega, the USA) Chemical Luminescent Cell Viability Assay kit.
# BTK WT = BTK WT (Homo sapiens, UniProt Q06187); experiment: Btk cell-free kinase assay, BTK WT protein; format: biochemical; conditions: compound 30 mins at room temperature, then 100 μM ATP 20 min at 37° C.; read-out: EC50 against BTK WT protein
# BTK WT, sequence (Q06187 whole entry): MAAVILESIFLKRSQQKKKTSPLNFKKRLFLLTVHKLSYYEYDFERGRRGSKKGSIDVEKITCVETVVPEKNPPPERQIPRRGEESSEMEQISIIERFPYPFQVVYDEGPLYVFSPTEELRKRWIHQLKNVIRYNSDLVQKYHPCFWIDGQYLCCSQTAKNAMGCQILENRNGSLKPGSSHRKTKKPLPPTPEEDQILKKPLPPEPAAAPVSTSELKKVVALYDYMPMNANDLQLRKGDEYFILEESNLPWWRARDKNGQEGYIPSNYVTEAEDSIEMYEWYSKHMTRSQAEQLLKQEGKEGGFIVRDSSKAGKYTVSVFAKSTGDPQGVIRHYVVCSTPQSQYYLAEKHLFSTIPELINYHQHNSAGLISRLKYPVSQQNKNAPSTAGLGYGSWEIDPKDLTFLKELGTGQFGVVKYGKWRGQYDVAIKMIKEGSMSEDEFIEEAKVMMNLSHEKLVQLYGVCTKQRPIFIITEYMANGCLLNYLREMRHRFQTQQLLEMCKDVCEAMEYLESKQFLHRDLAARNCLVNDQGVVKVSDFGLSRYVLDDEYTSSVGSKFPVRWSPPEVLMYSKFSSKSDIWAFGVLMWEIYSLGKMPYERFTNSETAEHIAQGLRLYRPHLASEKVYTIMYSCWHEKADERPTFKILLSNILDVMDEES
# Text: (§1) The BTK wild-type plasmid and the BTK mutant plasmid (C481S) were respectively transfected into SF9 cells (purchased from invitrogen), and after three generations of virus amplification, the P3-generation virus was used to transfect SF9 cells which were collected after 72-hour culture to obtain protein BTK WT and protein BTK C481S, which were then purified.
# BTK C481S = target: T1, BTK C481S (Homo sapiens, UniProt Q06187, C481S); experiment: Btk cell-free kinase assay, BTK C481S mutant protein; format: biochemical; conditions: compound 30 mins at room temperature, then 100 μM ATP 20 min at 37° C.; read-out: EC50 against BTK C481S
# T1 construct: made in house; host or cells: SF9 insect cells
# T1 sequence (Q06187 whole entry C481S): as the sequence (Q06187 whole entry) above, with C481S counted along it
# Text: as §1
# [2] = test system: phosphorylation of tyrosine Y223 on Btk; experiment: Effects on BTK Y223 and downstream signaling pathway proteins in cells (anti-IgM stimulation); format: cell-based, human; conditions: Compound 1 in MEC-2, Pfeiffer, Ramos, TMD8, U2932; Compound 35 in MEC-1; 4 hours, then anti-IgM 10 mins
# Text: By assaying a number of cellular biochemical and functional endpoints, the properties of the compounds were further characterized. […] In this experiment, PC132765 (purchased from Shanghai Haoyuan Chemexpress Co., Ltd.), CGI11746 (purchased from Shanghai Haoyuan Chemexpress Co., Ltd.) and Compound 6 (prepared herein) were used as control (see FIGS. 2a-2f).
# Effects of the compounds on phosphorylation of BTKY223, BTKY551, PLCγ1Y783, PLCγ2Y759, PLCγ2Y1217, P—NF-κB P65, P-AKT Ser473, Erk Thr202/Tyr204 and the like were determined (FIGS. 2a-2f).
# BTK protein kinase = BTK protein kinase (Homo sapiens, UniProt Q06187); experiment: In vitro enzymatic activity against BTK (ADP-Glo); format: biochemical; conditions: compound with BTK 4 hours at room temperature; ATP 10 μM, 37° C. 1 hour; values in nM
# BTK protein kinase, sequence (Q06187 whole entry): as the sequence (Q06187 whole entry) above
# Procedure, shortened: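 BTK (1.5 ng/μL enzyme solution) was preincubated with compound (final 10 μM to 0.003 μM) for 4 h at room temperature. Reaction ran 1 h at 37 °C with 10 μM ATP and 0.2 μg/μL poly(Glu,Tyr) 4:1 (final). ADP formed was measured by ADP-Glo luminescence, and IC50 was obtained by curve plotting.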
GI50 [1] [nM],EC50 (BTK WT) [nM],EC50 (BTK C481S) [nM],IC50 (BTK protein kinase) [nM],SMILES,phosphorylation of tyrosine Y223 on Btk [2]
126,,,,"Cc1c(NC(=O)c2ccc(C(C)(C)C)cc2)cccc1-c1cn(C)c(=O)c(Nc2ccc(C(=O)N3CCOCC3)cc2)n1 [CGI1746, reference compound]",
,16,186,5,"C=CC(=O)Nc1cc(Nc2cc(-c3cccc(NC(=O)c4ccc(N(C)C)cc4)c3C)cn(C)c2=O)ccc1C(=O)N1CCOCC1 [Compound 35, N-(3-(5-((3-acrylamide-4-(morpholin-4-carbonyl)phenyl)amino)-1-methyl-6-oxo-1,6-dihydropyridin-3-yl)-2-methylphenyl)-4-(dimethylamino)benzoylamide]",selectively and significantly inhibit phosphorylation of tyrosine Y223 on Btk
,,,15.4,"C=CC(=O)Nc1cc(Nc2cc(-c3cccc(NC(=O)c4cc5ccccc5s4)c3C)cn(C)c2=O)ccc1N(C)C [Compound 93, N-(3-(5-((3-acrylamide-4-(dimethylamino)phenyl)amino)-1-methyl-6-oxo-1,6-dihydropyridin-3-yl)-2-methylphenyl)benzo[b]thiophene-2-carboxamide]",
1,,,,"C=CC(=O)N1CCC[C@@H](n2nc(-c3ccc(Oc4ccccc4)cc3)c3c(N)ncnc32)C1 [PCI32765, reference compound]",
